Earlier results on four compounds are cited in patent US6358541B1, “Topical preparation for the treatment of hair loss” (priority 2000, dated 2002).

The conditions of series [1]: 0.1 wt. % adapalene gel, versus petroleum jelly control.
Another series relates to comedones. The following applies: topical.
For series [2] the following is noted: topical.
For series [3] the following is noted: vapor; OSHA list 1990.

With `COc1ccc(-c2ccc3cc(C(=O)O)ccc3c2)cc1C12CC3CC(CC(C3)C1)C2` [adapalene, Adapalene], the irritative potential result in series [1] is given as “low irritative potential only slightly greater than a petroleum jelly control”. In the series on comedones, the comedolytic activity entry is recorded as “significant comedolytic activity”. For the compound `O=C(O)CCCCCCCC(=O)O` [Azeleic acid, 1,7 heptanedicarboxylic acid], the “irritation relative to tretinoin (retinoic acid)” value in series [2] was “less irritation than tretinoin”.

Take `CC1=C(/C=C/C(C)=C/C=C/C(C)=C/C=O)C(C)(C)CCC1` [retinaldehyde, Retinaldehyde]: the “irritation relative to tretinoin (retinoic acid)” value in series [2] was “significantly less irritating than retinoic acid”.

For the compound `[O][Cl+][O-]` [chlorine dioxide], the “Permissible Exposure Level (PEL)” value in series [3] is on record as 0.1 ppm.
